Results published in patent publication US7638639B2, “Substituted pyrrolidine and related compounds” (Theravance, Inc., priority 2003, dated 2009).

Assays:
hM2 receptor = target: T1, hM2 receptor (Homo sapiens, UniProt P08172); experiment: Blockade of agonist-mediated inhibition of cAMP accumulation; type: cell-based; conditions: CHO-K1 cells expressing the hM2 receptor; read-out: Ki for blockade of oxotremorine-inhibition of forskolin-mediated cAMP accumulation
T1 construct: expressed in transfected cells
T1 sequence (P08172 1-466): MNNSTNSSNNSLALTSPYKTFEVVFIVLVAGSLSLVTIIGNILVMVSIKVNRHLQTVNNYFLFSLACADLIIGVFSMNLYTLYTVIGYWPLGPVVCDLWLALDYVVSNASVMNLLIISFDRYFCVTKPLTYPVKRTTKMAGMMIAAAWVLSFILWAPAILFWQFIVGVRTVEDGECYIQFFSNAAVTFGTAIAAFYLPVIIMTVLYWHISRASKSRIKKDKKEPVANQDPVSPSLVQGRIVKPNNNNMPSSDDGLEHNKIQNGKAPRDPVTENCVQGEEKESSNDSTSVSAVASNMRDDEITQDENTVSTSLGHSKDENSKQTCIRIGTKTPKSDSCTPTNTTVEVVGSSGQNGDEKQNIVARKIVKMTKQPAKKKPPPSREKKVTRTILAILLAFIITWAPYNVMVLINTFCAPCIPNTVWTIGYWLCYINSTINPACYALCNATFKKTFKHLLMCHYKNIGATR
Method: A. Blockade of Agonist-Mediated Inhibition of cAMP Accumulation
In this assay, the functional potency of a test compound was determined by measuring the ability of the test compound to block oxotremorine-inhibition of forskolin-mediated cAMP accumulation in CHO-K^1 cells expressing the hM2 receptor.
cAMP assays were performed in a radioimmunoassay format using the Flashplate Adenylyl Cyclase Activation Assay System with ^125I-cAMP (NEN SMP004B, PerkinElmer Life Sciences Inc., Boston, Mass.), according to the manufacturer's instructions.
Cells were rinsed once with dPBS and lifted with […] (0.05% trypsin/[…]) as described in the Cell Culture and Membrane Preparation section above. […] The cell pellet was then re-suspended in 10 mL dPBS, and the cells were counted with a Coulter Z1 Dual Particle Counter (Beckman Coulter, Fullerton, Calif.). […]
Reactions were incubated for 10 minutes at 37° C. and stopped by addition of 100 μL ice-cold detection buffer. Plates were sealed, incubated overnight at room temperature and counted the next morning on a PerkinElmer TopCount liquid scintillation counter (PerkinElmer Inc., Wellesley, Mass.). The amount of cAMP produced (pmol/well) was calculated based on the counts observed for the samples and cAMP standards, as described in the manufacturer's user manual. […]

[1] = system: methacholine-induced decrease in mean arterial pressure; experiment: Methacholine-induced depressor responses in conscious guinea pigs; type: in vivo; conditions: guinea pig, inhalation
From the text: Methacholine-Induced Depressor Responses in Conscious Guinea Pigs
Healthy, adult, male Sprague-Dawley guinea pigs (Harlan, Indianapolis, Ind.), weighing between 200 and 300 g were used in these studies. Under isoflurane anesthesia (to effect), animals were instrumented with common carotid artery and jugular vein catheters (PE-50 tubing). The catheters were exteriorized utilizing a subcutaneous tunnel to the subscapular area. All surgical incisions were sutured with 4-0 Ethicon Silk and the catheters locked with heparin (1000 units/mL). Each animal was administered saline (3 mL, SC) at the end of surgery as well as buprenorphine (0.05 mg/kg, IM). Animals were allowed to recover on a heating pad before being returned to their holding rooms.
Approximately 18 to 20 hours following surgery, the animals were weighed and the carotid artery catheter on each animal was connected to a transducer for recording arterial pressure. Arterial pressure and heart rate was recorded using a Biopac MP-100 Acquisition System. Animals were allowed to acclimate and stabilize for a period of 20 minutes.
Each animal was challenged with methylcholine (MCh) (0.3 mg/kg, iv) administer through the jugular venous line and the cardiovascular response was monitored for 10 minutes. […] At 1.5 and 24 h post-dosing, the animals were re-challenged with MCh (0.3 mg/kg, iv) and the hemodynamic response was determined. […]

Ki (hM2 receptor): < 5 nM
SMILES: CNCCCCCCCCN1CC[C@@H](C(C(N)=O)(c2ccccc2)c2ccccc2)C1 [Example 1, 2-[(S)-1-(8-Methylaminooctyl)pyrrolidin-3-yl]-2,2-diphenylacetamide]
apparent lung-selectivity index (anti-depressor ID50 / bronchoprotective ID50) [1]: greater than 5
